Data from ChEMBL document CHEMBL1152560, “Substituted 2-arylbenzothiazoles as kinase inhibitors: hit-to-lead optimization” (Bioorg Med Chem, 2009).

What was measured:
[1] = biological target: T1, Ephrin type-A receptor 1 (Homo sapiens) (UniProt P21709); assay: Residual activity of EPHA1 at 0.1 uM by microplate scintillation counting
T1 sequence (whole entry): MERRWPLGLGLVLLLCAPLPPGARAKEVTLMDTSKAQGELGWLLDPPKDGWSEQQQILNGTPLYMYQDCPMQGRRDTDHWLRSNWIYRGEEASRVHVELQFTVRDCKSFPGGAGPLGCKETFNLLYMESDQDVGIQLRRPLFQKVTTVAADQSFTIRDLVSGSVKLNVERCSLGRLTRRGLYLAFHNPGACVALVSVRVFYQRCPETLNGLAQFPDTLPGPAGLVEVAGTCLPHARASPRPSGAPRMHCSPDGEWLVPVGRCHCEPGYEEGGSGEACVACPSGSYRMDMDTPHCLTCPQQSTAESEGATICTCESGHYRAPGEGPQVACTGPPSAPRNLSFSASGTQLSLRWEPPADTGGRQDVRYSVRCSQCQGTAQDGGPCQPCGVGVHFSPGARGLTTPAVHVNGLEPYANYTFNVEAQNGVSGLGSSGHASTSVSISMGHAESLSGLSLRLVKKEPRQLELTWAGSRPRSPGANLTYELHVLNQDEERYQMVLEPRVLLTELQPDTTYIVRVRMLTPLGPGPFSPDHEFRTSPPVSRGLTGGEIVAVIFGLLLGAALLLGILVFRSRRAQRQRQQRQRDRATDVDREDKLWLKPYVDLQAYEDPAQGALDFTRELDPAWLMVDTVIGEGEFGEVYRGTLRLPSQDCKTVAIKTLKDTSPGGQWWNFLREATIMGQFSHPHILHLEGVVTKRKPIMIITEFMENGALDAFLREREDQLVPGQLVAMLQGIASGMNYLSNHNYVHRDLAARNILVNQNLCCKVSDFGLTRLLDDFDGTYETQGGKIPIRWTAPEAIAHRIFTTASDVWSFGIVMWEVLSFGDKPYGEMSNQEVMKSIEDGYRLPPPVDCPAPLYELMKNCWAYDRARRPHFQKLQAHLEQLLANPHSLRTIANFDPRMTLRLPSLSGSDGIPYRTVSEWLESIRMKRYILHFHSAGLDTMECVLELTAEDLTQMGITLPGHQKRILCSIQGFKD

[2] = biological target: Mitogen-activated protein kinase 8 (Homo sapiens) (UniProt P45983); assay: Residual activity of JNK1 at 10 uM by microplate scintillation counting
[3] = biological target: NT-3 growth factor receptor (Homo sapiens) (UniProt Q16288); assay: Residual activity of TRK-C at 1 uM by microplate scintillation counting
[4] = biological target: T2, Ephrin type-B receptor 3 (Homo sapiens) (UniProt P54753); assay: Residual activity of EPHB3 at 1 uM by microplate scintillation counting
T2 sequence (whole entry): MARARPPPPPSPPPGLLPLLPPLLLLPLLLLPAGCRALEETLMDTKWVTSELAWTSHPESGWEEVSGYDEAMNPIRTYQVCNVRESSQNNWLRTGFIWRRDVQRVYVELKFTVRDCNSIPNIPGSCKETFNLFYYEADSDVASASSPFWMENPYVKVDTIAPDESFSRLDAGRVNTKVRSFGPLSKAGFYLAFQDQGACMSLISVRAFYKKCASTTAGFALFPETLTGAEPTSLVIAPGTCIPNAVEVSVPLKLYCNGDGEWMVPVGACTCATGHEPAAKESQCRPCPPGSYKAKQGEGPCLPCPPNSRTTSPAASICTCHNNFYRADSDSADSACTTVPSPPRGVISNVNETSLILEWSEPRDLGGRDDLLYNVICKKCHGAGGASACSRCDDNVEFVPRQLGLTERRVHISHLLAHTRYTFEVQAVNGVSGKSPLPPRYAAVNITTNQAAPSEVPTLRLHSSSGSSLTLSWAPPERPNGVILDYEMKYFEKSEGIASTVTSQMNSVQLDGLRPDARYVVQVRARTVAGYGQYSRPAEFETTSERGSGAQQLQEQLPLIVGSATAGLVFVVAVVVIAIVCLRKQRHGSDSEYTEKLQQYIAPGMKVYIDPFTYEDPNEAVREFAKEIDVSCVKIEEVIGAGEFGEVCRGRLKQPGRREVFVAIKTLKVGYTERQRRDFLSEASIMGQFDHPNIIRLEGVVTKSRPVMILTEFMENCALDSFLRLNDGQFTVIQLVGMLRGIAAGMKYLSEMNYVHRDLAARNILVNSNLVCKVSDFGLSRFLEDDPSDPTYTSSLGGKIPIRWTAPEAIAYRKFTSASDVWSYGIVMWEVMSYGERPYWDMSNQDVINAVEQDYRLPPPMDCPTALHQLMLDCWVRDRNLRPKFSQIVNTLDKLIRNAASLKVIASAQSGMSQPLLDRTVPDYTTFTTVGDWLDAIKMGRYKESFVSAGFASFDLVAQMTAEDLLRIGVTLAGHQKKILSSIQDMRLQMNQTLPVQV

[5] = biological target: T3, Serine/threonine-protein kinase 3 (Homo sapiens) (UniProt Q13188); assay: Residual activity of MST2 at 10 uM by microplate scintillation counting
T3 sequence (whole entry): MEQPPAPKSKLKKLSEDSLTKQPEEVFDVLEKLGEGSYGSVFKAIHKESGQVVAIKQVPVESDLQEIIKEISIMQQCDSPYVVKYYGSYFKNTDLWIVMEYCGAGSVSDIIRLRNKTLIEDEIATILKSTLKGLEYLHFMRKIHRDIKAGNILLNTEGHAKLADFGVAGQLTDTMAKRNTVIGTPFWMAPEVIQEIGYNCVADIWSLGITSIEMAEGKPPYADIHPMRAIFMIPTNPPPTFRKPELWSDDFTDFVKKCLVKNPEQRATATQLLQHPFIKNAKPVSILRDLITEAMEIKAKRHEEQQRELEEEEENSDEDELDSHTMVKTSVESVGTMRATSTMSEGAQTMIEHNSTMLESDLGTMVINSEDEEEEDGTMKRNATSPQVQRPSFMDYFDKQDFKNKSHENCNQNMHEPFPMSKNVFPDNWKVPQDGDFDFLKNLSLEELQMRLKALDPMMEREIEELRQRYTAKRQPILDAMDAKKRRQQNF

[6] = biological target: RAC-gamma serine/threonine-protein kinase (Homo sapiens) (UniProt Q9Y243); assay: Residual activity of AKT3 at 1 uM by microplate scintillation counting
Sequence of RAC-gamma serine/threonine-protein kinase (Homo sapiens) (Q9Y243 whole entry): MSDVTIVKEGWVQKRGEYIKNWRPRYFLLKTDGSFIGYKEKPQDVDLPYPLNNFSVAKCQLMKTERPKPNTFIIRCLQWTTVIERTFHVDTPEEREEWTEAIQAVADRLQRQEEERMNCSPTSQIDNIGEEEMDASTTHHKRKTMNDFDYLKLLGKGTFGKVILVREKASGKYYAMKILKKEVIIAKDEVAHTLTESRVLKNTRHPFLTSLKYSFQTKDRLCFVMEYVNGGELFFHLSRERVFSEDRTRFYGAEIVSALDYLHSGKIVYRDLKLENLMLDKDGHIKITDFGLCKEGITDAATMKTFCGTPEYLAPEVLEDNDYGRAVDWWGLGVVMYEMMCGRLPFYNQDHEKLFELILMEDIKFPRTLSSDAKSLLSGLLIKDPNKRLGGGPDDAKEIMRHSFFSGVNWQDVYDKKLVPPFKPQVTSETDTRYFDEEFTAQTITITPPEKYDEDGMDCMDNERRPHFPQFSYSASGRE

Sequence of NT-3 growth factor receptor (Homo sapiens) (Q16288 32-839 limits assumed): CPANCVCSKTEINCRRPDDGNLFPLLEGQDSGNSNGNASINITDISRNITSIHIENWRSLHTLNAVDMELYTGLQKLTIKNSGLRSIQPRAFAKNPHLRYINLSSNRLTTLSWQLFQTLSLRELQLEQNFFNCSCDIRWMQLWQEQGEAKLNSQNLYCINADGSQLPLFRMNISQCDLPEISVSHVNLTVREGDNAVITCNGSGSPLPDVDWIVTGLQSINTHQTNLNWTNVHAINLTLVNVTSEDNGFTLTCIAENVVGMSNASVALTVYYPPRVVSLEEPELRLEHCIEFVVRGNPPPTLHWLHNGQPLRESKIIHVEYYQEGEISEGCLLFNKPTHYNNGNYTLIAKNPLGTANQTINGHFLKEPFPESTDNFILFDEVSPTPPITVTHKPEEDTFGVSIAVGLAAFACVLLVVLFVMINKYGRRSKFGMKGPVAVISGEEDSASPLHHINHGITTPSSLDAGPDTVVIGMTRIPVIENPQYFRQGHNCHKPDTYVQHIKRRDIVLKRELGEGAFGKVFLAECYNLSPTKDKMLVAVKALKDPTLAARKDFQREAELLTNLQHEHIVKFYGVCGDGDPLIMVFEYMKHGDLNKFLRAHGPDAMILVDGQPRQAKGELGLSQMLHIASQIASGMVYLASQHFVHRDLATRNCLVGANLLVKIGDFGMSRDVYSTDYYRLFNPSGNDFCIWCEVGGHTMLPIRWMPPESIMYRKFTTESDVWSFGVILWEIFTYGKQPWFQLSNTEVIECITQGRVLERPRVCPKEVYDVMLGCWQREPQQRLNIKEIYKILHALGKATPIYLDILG
Sequence of Mitogen-activated protein kinase 8 (Homo sapiens) (P45983 whole entry): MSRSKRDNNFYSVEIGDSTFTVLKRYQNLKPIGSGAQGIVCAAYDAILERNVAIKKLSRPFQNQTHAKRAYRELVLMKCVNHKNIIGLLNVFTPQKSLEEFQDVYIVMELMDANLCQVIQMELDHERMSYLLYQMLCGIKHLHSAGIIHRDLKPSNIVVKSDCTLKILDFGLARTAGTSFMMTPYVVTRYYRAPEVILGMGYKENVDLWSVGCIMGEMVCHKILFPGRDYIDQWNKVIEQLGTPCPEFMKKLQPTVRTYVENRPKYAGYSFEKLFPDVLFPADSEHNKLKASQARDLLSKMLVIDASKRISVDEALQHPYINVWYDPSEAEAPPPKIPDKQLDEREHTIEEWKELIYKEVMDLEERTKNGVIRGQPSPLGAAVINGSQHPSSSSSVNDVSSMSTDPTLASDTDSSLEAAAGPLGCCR

Row | residual activity [1] [%] | residual activity [2] [%] | residual activity [3] [%] | residual activity [4] [%] | residual activity [5] [%] | residual activity [6] [%] | Compound
1 | 102 | 305 | 124 | 105 | 20 | 98 | COc1cc2c(Oc3ccc(-c4nc5ccccc5s4)cc3)ncnc2cc1OCCCN1CCCC1
2 | 112 | 272 | 104 | 108 | 21 | 88 | COc1cc2c(Oc3ccc(-c4nc5ccccc5s4)cc3)ncnc2cc1OCCCN1CCN(C)CC1
3 | 106 | 264 | 104 | 106 | 23 | 89 | COc1cc2c(Oc3ccc(-c4nc5ccccc5s4)cc3F)ncnc2cc1OCCCN1CCN(C)CC1
